IC50 data for 32 molecules are collected here from patent US20230081390A1, “INHIBITORS OF RAF KINASES” (Kinnate Biopharma Inc., priority 2019, published 2023).

The experiment addresses human RAF1 (Homo sapiens, UniProt P04049). The experiment can be described thus: Protein kinase assay (33P-ATP filter binding), human RAF1, 10-dose IC50. It is filed as biochemical. The conditions noted are these: MEK1 (K97R) substrate 3 micromolar, ATP 10 micromolar, read-out: RAF-1 IC50. How it is done:
In brief, for each reaction, kinase and substrate were mixed in a buffer containing 20 mM HEPES (pH 7.5), 10 mM MgCl2, 1 mM EGTA, 0.02% Brij35, 0.02 mg/mL BSA, 0.1 mM Na3VO4, 2 mM DTT, and […]. All compounds were solubilized in DMSO. Compounds were then added to each reaction mixture via acoustic dispense using an ECHO 550 nanoliter dispenser. For human RAF1 testing, human MEK1 (K97R) was used as a substrate at a concentration of 3 micromolar, with a final ATP concentration of 10 micromolar. […] Reactions were carried out at room temperature for 2 hr and spotted onto P81 ion exchange cellulose chromatography paper (Reaction Biology). […] The percent remaining kinase activity relative to a vehicle-containing (DMSO) kinase reaction was calculated for each kinase/inhibitor pair. IC50 values were calculated using Prism 5 (GraphPad).

human RAF1, sequence (P04049 whole entry): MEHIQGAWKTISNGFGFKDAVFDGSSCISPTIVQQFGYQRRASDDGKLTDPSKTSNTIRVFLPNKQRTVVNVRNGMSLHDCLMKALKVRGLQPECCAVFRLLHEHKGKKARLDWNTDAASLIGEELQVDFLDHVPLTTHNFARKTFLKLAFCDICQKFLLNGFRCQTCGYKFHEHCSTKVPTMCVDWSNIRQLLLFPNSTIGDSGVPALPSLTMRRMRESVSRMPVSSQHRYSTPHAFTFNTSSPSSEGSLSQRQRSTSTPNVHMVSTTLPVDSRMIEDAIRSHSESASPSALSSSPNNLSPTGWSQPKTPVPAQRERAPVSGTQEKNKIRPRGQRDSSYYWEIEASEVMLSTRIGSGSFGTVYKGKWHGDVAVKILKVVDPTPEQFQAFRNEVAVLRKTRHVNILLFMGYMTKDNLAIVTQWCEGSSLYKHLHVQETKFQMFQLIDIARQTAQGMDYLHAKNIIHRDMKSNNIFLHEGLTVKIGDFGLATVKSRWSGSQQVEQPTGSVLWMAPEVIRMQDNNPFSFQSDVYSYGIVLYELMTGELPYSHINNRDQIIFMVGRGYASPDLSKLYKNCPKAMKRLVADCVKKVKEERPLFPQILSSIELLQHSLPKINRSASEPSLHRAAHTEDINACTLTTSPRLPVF

As a reminder, the IC50 is the concentration that inhibits the measured activity by half. `Cc1cc(F)c(NC(=O)N2CC[C@H](OC(F)(F)F)C2)cc1-c1cc(OCCO)nc(N2CCOCC2)c1` (single isomer, unassigned) [Example 78]: the IC50 was less than 0.01 µM. With `Cc1cc(F)c(NC(=O)N2CC3CCC3(C(F)(F)F)C2)cc1-c1cc(OCCO)nc(N2CCOCC2)c1` (single isomer, unassigned) [Example 82, N-[2-fluoro-5-[2-(2-hydroxyethoxy)-6-(morpholin-4-yl)pyridin-4-yl]-4-methylphenyl]-1-(trifluoromethyl)-3-azabicyclo[3.2.0]heptane-3-carboxamide], the IC50 was less than 0.01 µM. For the molecule `Cc1cc(F)c(NC(=O)N2CC3CCC3(C(F)(F)F)C2)cc1-c1cc(OCCO)nc(N2CCOCC2)c1` (single isomer, unassigned) [Example 83, N-[2-fluoro-5-[2-(2-hydroxyethoxy)-6-(morpholin-4-yl)pyridin-4-yl]-4-methylphenyl]-1-(trifluoromethyl)-3-azabicyclo[3.2.0]heptane-3-carboxamide], the IC50 is less than 0.01 µM. With `Cc1cc(F)c(NC(=O)N2CC[C@@H](C(F)(F)C(F)(F)F)C2)cc1-c1cc(OCCO)nc(N2CCOCC2)c1` (single isomer, unassigned) [Example 84], the IC50 is less than 0.01 µM.

With `Cc1cc(F)c(NC(=O)N2CCC(C(F)(F)C(F)(F)F)C2)cc1-c1cc(OCCO)nc(N2CCOCC2)c1` (single isomer, unassigned) [Example 85], the IC50 was less than 0.01 µM. For `Cc1cc(F)c(NC(=O)N2CCC3(CCC3(F)F)C2)cc1-c1cc(OCCO)nc(N2CCOCC2)c1` (single isomer, unassigned) [Example 90, 1,1-difluoro-N-[2-fluoro-5-[2-(2-hydroxyethoxy)-6-(morpholin-4-yl)pyridin-4-yl]-4-methylphenyl]-6-azaspiro[3.4]octane-6-carboxamide], the IC50 is less than 0.01 µM. To `Cc1cc(F)c(NC(=O)N2CCC3(CCC3(F)F)C2)cc1-c1cc(OCCO)nc(N2CCOCC2)c1` (single isomer, unassigned) [Example 91, 1,1-difluoro-N-[2-fluoro-5-[2-(2-hydroxyethoxy)-6-(morpholin-4-yl)pyridin-4-yl]-4-methylphenyl]-6-azaspiro[3.4]octane-6-carboxamide] belongs less than 0.01 µM; to `Cc1cc(F)c(NC(=O)N2CCC(C(C)C(F)(F)F)C2)cc1-c1cc(OCCO)nc(N2CCOCC2)c1` (single isomer, unassigned) [Example 100, N-[2-fluoro-5-[2-(2-hydroxyethoxy)-6-(morpholin-4-yl)pyridin-4-yl]-4-methylphenyl]-3-(1,1,1-trifluoropropan-2-yl)pyrrolidine-1-carboxamide], less than 0.01 µM. For `Cc1cc(F)c(NC(=O)N2CCC(C(C)C(F)(F)F)C2)cc1-c1cc(OCCO)nc(N2CCOCC2)c1` (single isomer, unassigned) [Example 101, N-[2-fluoro-5-[2-(2-hydroxyethoxy)-6-(morpholin-4-yl)pyridin-4-yl]-4-methylphenyl]-3-(1,1,1-trifluoropropan-2-yl)pyrrolidine-1-carboxamide], the IC50 is less than 0.01 µM. Take `Cc1cc(F)c(NC(=O)N2CCC(C(C)C(F)(F)F)C2)cc1-c1cc(OCCO)nc(N2CCOCC2)c1` (single isomer, unassigned) [Example 102, N-[2-fluoro-5-[2-(2-hydroxyethoxy)-6-(morpholin-4-yl)pyridin-4-yl]-4-methylphenyl]-3-(1,1,1-trifluoropropan-2-yl)pyrrolidine-1-carboxamide]: the IC50 was less than 0.01 µM. Under `Cc1cc(F)c(NC(=O)N2CCC(C(C)C(F)(F)F)C2)cc1-c1cc(OCCO)nc(N2CCOCC2)c1` (single isomer, unassigned) [Example 103, N-[2-fluoro-5-[2-(2-hydroxyethoxy)-6-(morpholin-4-yl)pyridin-4-yl]-4-methylphenyl]-3-(1,1,1-trifluoropropan-2-yl)pyrrolidine-1-carboxamide] stands less than 0.01 µM; under `Cc1cc(F)c(NC(=O)N2CC[C@]3(C2)CC(F)(F)C3(F)F)cc1-c1cc(OCCO)nc(N2CCOCC2)c1` (single isomer, unassigned) [Example 105], less than 0.01 µM; under `Cc1cc(F)c(NC(=O)N2CC[C@@]3(C2)CC(F)(F)C3(F)F)cc1-c1cc(OCCO)nc(N2CCOCC2)c1` (single isomer, unassigned) [Example 106], less than 0.01 µM. To `Cc1cc(F)c(NC(=O)N2CCCC3C2C3C(F)(F)F)cc1-c1cc(OCCO)nc(N2CCOCC2)c1` (single isomer, unassigned) [Example 108, N-[2-fluoro-5-[2-(2-hydroxyethoxy)-6-(morpholin-4-yl)pyridin-4-yl]-4-methylphenyl]-7-(trifluoromethyl)-2-azabicyclo[4.1.0]heptane-2-carboxamide] belongs 1 to 10 µM; to `Cc1cc(F)c(NC(=O)N2CCCC3C2C3C(F)(F)F)cc1-c1cc(OCCO)nc(N2CCOCC2)c1` (single isomer, unassigned) [Example 109, N-[2-fluoro-5-[2-(2-hydroxyethoxy)-6-(morpholin-4-yl)pyridin-4-yl]-4-methylphenyl]-7-(trifluoromethyl)-2-azabicyclo[4.1.0]heptane-2-carboxamide], less than 0.01 µM. Regarding `Cc1cc(F)c(NC(=O)N2CCCC3C2C3C(F)(F)F)cc1-c1cc(OCCO)nc(N2CCOCC2)c1` (single isomer, unassigned) [Example 110, N-[2-fluoro-5-[2-(2-hydroxyethoxy)-6-(morpholin-4-yl)pyridin-4-yl]-4-methylphenyl]-7-(trifluoromethyl)-2-azabicyclo[4.1.0]heptane-2-carboxamide], the IC50 was less than 0.01 µM. As to `Cc1cc(F)c(NC(=O)N2CCCC3C2C3C(F)(F)F)cc1-c1cc(OCCO)nc(N2CCOCC2)c1` (single isomer, unassigned) [Example 111, N-[2-fluoro-5-[2-(2-hydroxyethoxy)-6-(morpholin-4-yl)pyridin-4-yl]-4-methylphenyl]-7-(trifluoromethyl)-2-aabicyclo[4.1.0]heptane-2-carboxamide], the IC50 is less than 0.01 µM. `Cc1cc(F)c(NC(=O)N2CCOC(C(F)(F)F)C2C)cc1-c1cc(OCCO)nc(N2CCOCC2)c1` (single isomer, unassigned) [Example 112]: the IC50 is less than 0.01 µM. Under `Cc1cc(F)c(NC(=O)N2CCOC(C(F)(F)F)C2C)cc1-c1cc(OCCO)nc(N2CCOCC2)c1` (single isomer, unassigned) [Example 113] stands less than 0.01 µM; under `Cc1ccc(NC(=O)N2CC[C@@H](SC(F)(F)F)C2)cc1-c1cc(OCCO)nc(N2CCOCC2)c1` (single isomer, unassigned) [Example 117], less than 0.01 µM; under `Cc1ccc(NC(=O)N2CC[C@H](SC(F)(F)F)C2)cc1-c1cc(OCCO)nc(N2CCOCC2)c1` (single isomer, unassigned) [Example 118], less than 0.01 µM.

As to `Cc1ccc(NC(=O)N2CC[C@@H](C(F)(F)F)C2)cc1-c1cnc(OC2CCOCC2)c(N2CCOCC2)c1` (single isomer, unassigned) [Example 119], the IC50 is less than 0.01 µM.

Consider `Cc1ccc(NC(=O)N2CC[C@H](C(F)(F)F)C2)cc1-c1cnc(OC2CCOCC2)c(N2CCOCC2)c1` (single isomer, unassigned) [Example 120], for which the IC50 is less than 0.01 µM. In the case of `Cc1ccc(NC(=O)N2CCC3(CCC3(F)F)C2)cc1-c1cc(OCCO)nc(N2CCOCC2)c1` (single isomer, unassigned) [Example 121, 1,1-difluoro-N-[3-[2-(2-hydroxyethoxy)-6-(morpholin-4-yl)pyridin-4-yl]-4-methylphenyl]-6-azaspiro[3.4]octane-6-carboxamide], the IC50 is less than 0.01 µM.

With `Cc1ccc(NC(=O)N2CCC3(CCC3(F)F)C2)cc1-c1cc(OCCO)nc(N2CCOCC2)c1` (single isomer, unassigned) [Example 122, 1,1-difluoro-N-[3-[2-(2-hydroxyethoxy)-6-(morpholin-4-yl)pyridin-4-yl]-4-methylphenyl]-6-azaspiro[3.4]octane-6-carboxamide], the IC50 was less than 0.01 µM. Under `Cc1ccc(NC(=O)N2CC[C@@H](OC(F)(F)F)C2)cc1-c1cc(OCCO)nc(N2CCOCC2)c1` (single isomer, unassigned) [Example 124] stands less than 0.01 µM.

`Cc1cc(F)c(NC(=O)N2CC[C@@H](CC(F)(F)F)C2)cc1-c1cc(O[C@H](C)CO)nc(N2CCOCC2)c1` (single isomer, unassigned) [Example 182]: the IC50 was less than 0.01 µM. Under `Cc1cc(F)c(NC(=O)N2CC[C@H](CC(F)(F)F)C2)cc1-c1cc(OC[C@@H](C)O)nc(N2CCOCC2)c1` (single isomer, unassigned) [Example 183] stands less than 0.01 µM. Under `Cc1cc(F)c(NC(=O)N2CC[C@H](CC(F)(F)F)C2)cc1-c1cc(O[C@H](C)CO)nc(N2CCOCC2)c1` (single isomer, unassigned) [Example 184] stands less than 0.01 µM; under `Cc1ccc(NC(=O)N2CC[C@@H](CC(F)(F)F)C2)cc1-c1cnc(OC2CCOCC2)c(N2CCOCC2)c1` (single isomer, unassigned) [Example 193], less than 0.01 µM; under `Cc1ccc(NC(=O)N2CC[C@H](CC(F)(F)F)C2)cc1-c1cnc(OC2CCOCC2)c(N2CCOCC2)c1` (single isomer, unassigned) [Example 194], less than 0.01 µM. To `Cc1cc(F)c(NC(=O)N2CCC(CC(F)(F)F)C2)cc1-c1cc(OCCO)nc(N2CCOCC2)c1` (stereo in doubt) [Example 37, (3R)-N-[2-fluoro-5-[2-(2-hydroxyethoxy)-6-(morpholin-4-yl)pyridin-4-yl]-4-methylphenyl]-3-(2,2,2-trifluoroethyl)pyrrolidine-1-carboxamide] belongs less than 0.01 µM.
